Values quoted from earlier work, collected in patent publication US10363219B2, “Method of preparing albumin nanoparticle carrier wrapping taxane drug” (Zhejiang Academy of Forestry, priority 2016, dated 2019).

Conditions: relative to paclitaxel

CC(=O)O[C@@]12CO[C@@H]1C[C@H](O)[C@@]1(C)C(=O)[C@H](O)C3=C(C)[C@@H](OC(=O)[C@H](O)[C@@H](NC(=O)OC(C)(C)C)c4ccccc4)C[C@@](O)([C@@H](OC(=O)c4ccccc4)[C@H]21)C3(C)C [Docetaxel]
cytotoxic effect, times of that of paclitaxel: 1.3-12 times
